Here are results for 34 compounds from US11504367B2, “Compounds and methods for treating oxalate-related diseases” (OxaluRx, Inc., priority 2019, dated 2022).

Data set [1] addresses recombinant full-length human hydroxyacid oxidase 1 (HAO1), the equivalents of hGOX (Homo sapiens (Human), UniProt Q9UJM8). Description: In-vitro human glycolate oxidase (hGOX) assay (Amplex red fluorescence). Type of data set: biochemical. Conditions: 6 nM recombinant human GO, 85 μM glycolate, 10 min preincubation. Put shortly: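 Activity was read as Amplex Red fluorescence (560/590 nm), with 50 μM reagent added after a 10 min room-temperature incubation. The enzyme, full-length human HAO1, was in pH 7.4 HEPES buffer containing KCl, NaCl, MgCl2 and 0.01% Triton X-100.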

Data set [2] can be described thus: In-vivo pharmacokinetic evaluation (exposure, AUC fold-over Example 1). Conditions: male CD-1 mice, 10 mg/kg oral gavage in 20% (2-Hydroxypropyl)-β-cyclodextrin, plasma at 0.5, 2 and 6 hours post-dose; AUC expressed as fold-over Example 1. The protocol: In-vivo exposure of test compounds was determined in 5-6 week old male CD-1 mice. Mice (n=2/compound) received 10 mg/kg of each compound formulated in 20% (2-Hydroxypropyl)-β-cyclodextrin (10 μL/g) by oral gavage. At 0.5 hours, 2 hours, and 6 hours post-dose, blood samples were collected from the submandibular vein using EDTA as an anticoagulant and stored on ice. Plasma samples were obtained by centrifugation at 4° C. and were analyzed immediately or stored at −20° C. until analysis. Compounds were extracted from mouse plasma with acetonitrile and quantified by LC-MS-MS in the negative ion mode using a standard curve.

recombinant full-length human hydroxyacid oxidase 1 (HAO1), the equivalents of hGOX, sequence (Q9UJM8 whole entry): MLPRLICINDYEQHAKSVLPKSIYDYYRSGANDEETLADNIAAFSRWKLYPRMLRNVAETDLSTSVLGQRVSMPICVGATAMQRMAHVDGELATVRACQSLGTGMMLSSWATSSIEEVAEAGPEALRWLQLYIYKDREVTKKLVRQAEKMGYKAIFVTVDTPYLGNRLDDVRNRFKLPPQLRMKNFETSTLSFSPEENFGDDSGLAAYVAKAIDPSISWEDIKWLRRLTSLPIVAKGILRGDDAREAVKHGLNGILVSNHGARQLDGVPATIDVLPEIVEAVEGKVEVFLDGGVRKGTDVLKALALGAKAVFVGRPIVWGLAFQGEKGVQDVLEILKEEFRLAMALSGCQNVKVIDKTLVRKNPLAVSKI

As to `CC#Cc1cccc(Oc2[nH]nnc2C(=O)O)c1` [Example 6, 5-(3-(Prop-1-ynyl)phenoxy)-1H-1,2,3-triazole-4-carboxylic Acid], in data set [1], the IC50 is 7 nM. Moreover, the “AUC Fold over Ex. 1” value in data set [2] is 0.8.
Take `CC(C)C#Cc1cccc(Oc2[nH]nnc2C(=O)O)c1` [Example 10, 5-(3-(3-Methylbut-1-ynyl)phenoxy)-1H-1,2,3-triazole-4-carboxylic Acid]: in data set [1], the concentration for half-maximal inhibition (IC50) was 28 nM. The “AUC Fold over Ex. 1” value in data set [2] stood at 1.6.
Turning to `CC(C)(C)C#Cc1ccc(Oc2[nH]nnc2C(=O)O)cc1` [Example 16, 5-(4-(3,3-Dimethylbut-1-ynyl)phenoxy)-1H-1,2,3-triazole-4-carboxylic Acid], the IC50 in data set [1] amounted to 210 nM. The “AUC Fold over Ex. 1” value in data set [2] was found to be 0.2.
For `CC(C)(C)C#Cc1cccc(Oc2[nH]nnc2C(=O)O)c1` [Example 17, 5-(3-(3,3-Dimethylbut-1-ynyl)phenoxy)-1H-1,2,3-triazole-4-carboxylic Acid], in that order: 42 nM and 1.3.
The like results for `O=C(O)c1nn[nH]c1Oc1ccc(C#CC2CC2)cc1` [Example 20, 5-(4-(2-Cyclopropylethynyl)phenoxy)-1H-1,2,3-triazole-4-carboxylic Acid] were, in that order, 11 nM and 0.8.
For `O=C(O)c1nn[nH]c1Oc1cccc(C#CC2CC2)c1` [Example 21, 5-(3-(2-Cyclopropylethynyl)phenoxy)-1H-1,2,3-triazole-4-carboxylic Acid], in that order: 9 nM and 2.5.
As for `O=C(O)c1nn[nH]c1Oc1ccc(C#CC2CCC2)cc1` [Example 24, 5-(4-(2-Cyclobutylethynyl)phenoxy)-1H-1,2,3-triazole-4-carboxylic Acid], in data set [1], the IC50 turned out to be 16 nM. For the same compound, in data set [2], the “AUC Fold over Ex. 1” value stood at 0.3.
The like results for `O=C(O)c1nn[nH]c1Oc1cccc(C#CC2CCC2)c1` [Example 25, 5-(3-(2-Cyclobutylethynyl)phenoxy)-1H-1,2,3-triazole-4-carboxylic Acid] were, in that order, 18 nM and 2.9.
With `O=C(O)c1nn[nH]c1Oc1ccc(C#CC2CCCC2)cc1` [Example 28, 5-(4-(2-Cyclopentylethynyl)phenoxy)-1H-1,2,3-triazole-4-carboxylic Acid], the IC50 in data set [1] was 18 nM. Moreover, the “AUC Fold over Ex. 1” value in data set [2] stood at 0.3.
For the compound `O=C(O)c1nn[nH]c1Oc1cccc(C#CC2CCCC2)c1` [Example 29, 5-(3-(2-Cyclopentylethynyl)phenoxy)-1H-1,2,3-triazole-4-carboxylic Acid], the IC50 in data set [1] turned out to be 10 nM. Also, in data set [2], the “AUC Fold over Ex. 1” value is recorded as 2.5.
For `O=C(O)c1nn[nH]c1Oc1cccc(C#CC2CCOCC2)c1` [Example 41, 5-(3-(2-(Tetrahydro-2H-pyran-4-yl)ethynyl)phenoxy)-1H-1,2,3-triazole-4-carboxylic Acid], in that order: 13 nM and 0.1.
Take `O=C(O)c1nn[nH]c1Oc1cccc(C#Cc2ccccc2)c1` [Example 139, 5-(3-(2-Phenylethynyl)phenoxy)-1H-1,2,3-triazole-4-carboxylic Acid]: the IC50 in data set [1] was determined as 10 nM. For the same compound, the “AUC Fold over Ex. 1” value in data set [2] is recorded as 1.1.
The like results for `Cn1cc(C#Cc2cccc(Oc3[nH]nnc3C(=O)O)c2)cn1` [Example 221, 5-(3-(2-(1-Methyl-1H-pyrazol-4-yl)ethynyl)phenoxy)-1H-1,2,3-triazole-4-carboxylic Acid] were, in that order, 1 nM and 0.1.
The like results for `N#Cc1ccc(C#Cc2cc(Oc3[nH]nnc3C(=O)O)ccc2F)cc1` [Example 268, 4-(3-((4-Cyanophenyl)ethynyl)-4-fluorophenoxy)-1H-1,2,3-triazole-5-carboxylic Acid] were, in that order, 1 nM and 0.3.
The like results for `COc1ccc(C#Cc2ccc(Oc3[nH]nnc3C(=O)O)cc2)cn1` [Example 282, 5-(4-(2-(6-Methoxypyridin-3-yl)ethynyl)phenoxy)-1H-1,2,3-triazole-4-carboxylic Acid] were, in that order, 3 nM and 0.5.
Regarding `COc1ccc(C#Cc2cccc(Oc3[nH]nnc3C(=O)O)c2)cn1` [Example 284, 5-(3-(2-(6-Methoxypyridin-3-yl)ethynyl)phenoxy)-1H-1,2,3-triazole-4-carboxylic Acid], in data set [1], the IC50 was 5 nM. In data set [2], the “AUC Fold over Ex. 1” value is 0.2.
`Cc1cccc(C#Cc2ccc(Oc3[nH]nnc3C(=O)O)cc2)n1` [Example 293, 5-(4-(2-(6-Methylpyridin-2-yl)ethynyl)phenoxy)-1H-1,2,3-triazole-4-carboxylic Acid]: the IC50 in data set [1] was determined as 5 nM. Further, the “AUC Fold over Ex. 1” value in data set [2] was 0.1.
For the compound `Cc1ccc(C#Cc2cccc(Oc3[nH]nnc3C(=O)O)c2)cn1` [Example 295, 5-(3-(2-(6-Methylpyridin-3-yl)ethynyl)phenoxy)-1H-1,2,3-triazole-4-carboxylic Acid], the 50% inhibitory concentration (IC50) in data set [1] worked out at 1 nM. In data set [2], the “AUC Fold over Ex. 1” value is on record as 0.2.
Turning to `CCCC#Cc1ccc(Oc2[nH]nnc2C(=O)O)cc1` [Example 299, 5-(4-(Pent-1-ynyl)phenoxy)-1H-1,2,3-triazole-4-carboxylic Acid], the IC50 in data set [1] is 15 nM. Moreover, the “AUC Fold over Ex. 1” value in data set [2] is on record as 0.9.
The like results for `CCCC#Cc1cccc(Oc2[nH]nnc2C(=O)O)c1` [Example 300, 5-(3-(Pent-1-ynyl)phenoxy)-1H-1,2,3-triazole-4-carboxylic Acid] were, in that order, 9 nM and 2.5.
On to `O=C(O)c1nn[nH]c1Oc1ccc(C#CCC2CC2)cc1` [Example 301, 5-(4-(3-Cyclopropylprop-1-ynyl)phenoxy)-1H-1,2,3-triazole-4-carboxylic Acid], for which, in data set [1], the half-maximal inhibitory concentration (IC50) came out at 15 nM. Moreover, the “AUC Fold over Ex. 1” value in data set [2] is 0.7.
As to `CCC#Cc1ccc(Oc2[nH]nnc2C(=O)O)cc1` [Example 303, 5-(4-(But-1-ynyl)phenoxy)-1H-1,2,3-triazole-4-carboxylic Acid], the IC50 in data set [1] is 36 nM. Further, the “AUC Fold over Ex. 1” value in data set [2] turned out to be 1.5.
Turning to `CCC#Cc1cccc(Oc2[nH]nnc2C(=O)O)c1` [Example 304, 5-(3-(But-1-ynyl)phenoxy)-1H-1,2,3-triazole-4-carboxylic Acid], in data set [1], the IC50 was determined as 12 nM. The “AUC Fold over Ex. 1” value in data set [2] stood at 1.6.
Turning to `O=C(O)c1nn[nH]c1Oc1ccc(C#CCC(F)(F)F)cc1` [Example 305, 5-(4-(4,4,4-Trifluorobut-1-ynyl)phenoxy)-1H-1,2,3-triazole-4-carboxylic Acid], in data set [1], the IC50 is 18 nM. For the same compound, the “AUC Fold over Ex. 1” value in data set [2] is 0.3.
Regarding `O=C(O)c1nn[nH]c1Oc1cccc(C#CCC(F)(F)F)c1` [Example 306, 5-(3-(4,4,4-Trifluorobut-1-ynyl)phenoxy)-1H-1,2,3-triazole-4-carboxylic Acid], the IC50 in data set [1] was 16 nM. Besides, the “AUC Fold over Ex. 1” value in data set [2] turned out to be 0.7.
As to `O=C(O)c1nn[nH]c1Oc1cccc(C#Cc2ccc3[nH]ncc3c2)c1` [Example 307, 5-(3-(2-(1H-Indazol-5-yl)ethynyl)phenoxy)-1H-1,2,3-triazole-4-carboxylic Acid], the IC50 in data set [1] is 1 nM. Also, the “AUC Fold over Ex. 1” value in data set [2] came out at 0.0.
For the compound `O=C(O)c1nn[nH]c1Oc1cccc(C#Cc2cccnc2)c1` [Example 312, 5-(3-(2-(Pyridin-3-yl)ethynyl)phenoxy)-1H-1,2,3-triazole-4-carboxylic Acid], the IC50 in data set [1] came to 3 nM. In addition, in data set [2], the “AUC Fold over Ex. 1” value came out at 0.2.
For `Cn1ncc2c(C#Cc3cccc(Oc4[nH]nnc4C(=O)O)c3)cccc21` [Example 315, 5-(3-(2-(1-Methyl-1H-indazol-4-yl)ethynyl)phenoxy)-1H-1,2,3-triazole-4-carboxylic Acid], the IC50 in data set [1] was 2 nM. Further, the “AUC Fold over Ex. 1” value in data set [2] turned out to be 0.3.
The like results for `O=C(O)c1nn[nH]c1Oc1cccc(C#Cc2cccc3cn[nH]c23)c1` [Example 324, 5-(3-(2-(1H-Indazol-7-yl)ethynyl)phenoxy)-1H-1,2,3-triazole-4-carboxylic Acid] were, in that order, 4 nM and 1.7.
Take `O=C(O)c1nn[nH]c1Oc1cccc(C#Cc2nccs2)c1` [Example 342, 5-(3-(2-(Thiazol-2-yl)ethynyl)phenoxy)-1H-1,2,3-triazole-4-carboxylic Acid]: the IC50 in data set [1] was determined as 2 nM. In data set [2], the “AUC Fold over Ex. 1” value is given as 0.4.
Take `O=C(O)c1nn[nH]c1Oc1cccc(C#CCC2CCCC2)c1` [Example 344, 5-(3-(3-Cyclopentylprop-1-ynyl)phenoxy)-1H-1,2,3-triazole-4-carboxylic Acid]: the 50% inhibitory concentration (IC50) in data set [1] is 4 nM. Besides, the “AUC Fold over Ex. 1” value in data set [2] is 1.9.
For the compound `O=C(O)c1nn[nH]c1Oc1cccc(C#CCC2CCC2)c1` [Example 345, 5-(3-(3-Cyclobutylprop-1-ynyl)phenoxy)-1H-1,2,3-triazole-4-carboxylic Acid], the IC50 in data set [1] is 8 nM. Further, the “AUC Fold over Ex. 1” value in data set [2] stood at 2.6.
In the case of `O=C(O)c1nn[nH]c1Oc1cccc(C#CCC2CCCCC2)c1` [Example 346, 5-(3-(3-Cyclohexylprop-1-ynyl)phenoxy)-1H-1,2,3-triazole-4-carboxylic Acid], in data set [1], the IC50 was 3 nM. Moreover, in data set [2], the “AUC Fold over Ex. 1” value is 0.7.
The like results for `O=C(O)c1nn[nH]c1Oc1cccc(C#CC2CCC(F)(F)CC2)c1` [Example 347, 5-(3-(2-(4,4-Difluorocyclohexyl)ethynyl)phenoxy)-1H-1,2,3-triazole-4-carboxylic Acid] were, in that order, 21 nM and 0.7.

As a reminder, the IC50 is the midpoint of a concentration-inhibition curve.
